In ChEMBL document CHEMBL3637782, “GSK Tres Cantos Follow-up TB Screening Data” (2016):
Values after ≈ are worked out from the molar mass of the structure shown.

Assays:
[1] = test system: HepG2; experiment: GSK_TB: The cytotoxicity against HepG2 cells expressed as IC50; format: functional, cell-based; conditions: Homo sapiens
[2] = GSK_TB: AVG_CHROM_LOGP; format: physicochemical
[3] = test system: Mycobacterium tuberculosis H37Rv; experiment: GSK_TB: Inhibition of the intracellular growth of Mycobacterium tuberculosis (pXC50); format: functional, ATCC25618
[4] = test system: Mycobacterium tuberculosis H37Rv; experiment: GSK_TB: Minimum inhibitory concentration against H37Rv stain of Mycobacterium tuberculosis using MABA method; format: functional; conditions: ATCC25618
[5] = GSK_TB: Lipophilicity, log D of the compound at pH 7.4 by ChromlogD analysis; format: physicochemical; conditions: buffer
[6] = GSK_TB: Kinetic solubility of the compound in phosphate buffered saline at pH 7.4 after 1 hr by CLND method; format: physicochemical

Structure (SMILES)	IC50 [1] [µM]	Lipophilicity [2]	pXC50 [3]	MIC [4] [µM]	Lipophilicity [5]	solubility kinetic at 1 h [6] [µg/mL]
CCCCNCC1COc2ccc(OC)cc2C1=O (stereo not drawn)	12	5.6014	5.3	5 (≈ 1.32 µg/mL)	2.99	118 (≈ 448 µM)
Cc1ccc2c(c1)c(=O)cc(C(F)(F)F)n2CCNC(=O)c1ccccn1	> 100	6.1236	5.6	10 (≈ 3.75 µg/mL)	5.84	6 (≈ 16 µM)
O=C(NCc1ccco1)N1CCN(Cc2ccc(Cl)s2)CC1	> 100	4.8996	5.6	2 (≈ 0.68 µg/mL)	4.82	98 (≈ 288 µM)
CCCCc1ccc(C(=O)Nc2nnc(S(=O)(=O)CCCC)s2)nc1	20	7.3965	5.6	10 (≈ 3.83 µg/mL)	6.01	1.5 (≈ 3.92 µM)
N#Cc1cccc(-c2ccc(NC[C@H]3CC[C@]4(CC3)CN(c3cccnn3)C(=O)O4)nc2)c1	40	4.9649	5.6	10 (≈ 4.41 µg/mL)	4.96	11 (≈ 25 µM)
NCC(c1cccs1)S(=O)(=O)c1ccccc1 (stereo not drawn)	32	2.5334	–	2 (≈ 0.535 µg/mL)	2.5	≥ 134
O=C(NCCO)c1c(O)c2ncc(Cc3ccc(F)cc3C(F)(F)F)cc2[nH]c1=O	> 100	3.9858	5.7	7.5 (≈ 3.19 µg/mL)	3.74	10 (≈ 23.5 µM)
CC1CC1c1ccc(CN2CCc3nc(Nc4ccccc4)sc3CC2)o1 (stereo not drawn)	40	8.1798	–	5.6 (≈ 2.13 µg/mL)	7.64	54 (≈ 142 µM)
FC(F)(F)Oc1ccc(-c2cc3ccncc3cc2OC2CCNCC2)cc1	16	6.8742	5.5	5 (≈ 1.94 µg/mL)	3.47	82 (≈ 211 µM)
COc1ccc(CCNC(=O)C2(n3cnnn3)CCCCC2)cc1	> 100	3.1698	5.7	8 (≈ 2.64 µg/mL)	2.43	≥ 226
NC(=O)c1ccc(CN(C2CC2)S(=O)(=O)c2ccccc2F)cc1	> 100	3.79	6.7	3.75 (≈ 1.31 µg/mL)	3.75	133 (≈ 382 µM)
O=C(NCc1ccoc1)N1CCN(Cc2ccc3c(c2)OCO3)CC1	> 100	3.5288	6.3	1.25 (≈ 0.429 µg/mL)	3.48	86 (≈ 250 µM)
COc1ccc(-c2nnc3sc(Cc4csc(C)n4)nn23)cc1	> 100	4.0511	5.7	2.5 (≈ 0.859 µg/mL)	3.97	95 (≈ 277 µM)
O=C(O)CCc1nc2ccccc2oc1=O	> 100	2.3212	<4.3	8 (≈ 1.75 µg/mL)	0.04	63 (≈ 287 µM)
Nc1ccc(C(O)CNCCc2ccccc2)cc1O (stereo not drawn)	50	1.7338	4.97	2.9 (≈ 0.79 µg/mL)	0.97	53 (≈ 195 µM)
CC(C)Oc1ccc(-c2nnc(-c3ccc4c(c3)CCNCC4)s2)cc1Cl	16	7.5923	5.5	10 (≈ 4 µg/mL)	4.92	5 (≈ 12.5 µM)
Clc1nnc(N2CCCC2)c2ccccc12	> 100	4.4101	5.8	4 (≈ 0.935 µg/mL)	4.41	≥ 100
Cc1nc(Nc2cnn(Cc3ccccc3F)c2)c2nn(C)c(C)c2n1	> 100	3.4146	6	4 (≈ 1.41 µg/mL)	3.41	23 (≈ 65.5 µM)
O=C(Nc1nc(-c2ccccn2)cs1)N1CCC(Cc2ccc(F)cc2)CC1	25	6.3357	6.1	10 (≈ 3.96 µg/mL)	6.09	4 (≈ 10.1 µM)
c1ccc(-c2ncc(-c3ccc(OCCCn4ccnc4)cc3)s2)cc1	25	6.7437	5.3	5 (≈ 1.81 µg/mL)	6.42	3 (≈ 8.3 µM)
O=C(NCc1ccco1)N1CCN(Cc2cccs2)CC1	> 100	3.5288	5.4	2.5 (≈ 0.764 µg/mL)	3.53	≥ 105
COc1ccc(Nc2nc(N[C@@H]3CCNC3)nc3cc[nH]c(=O)c23)cc1NC(=O)c1ccccc1	25	3.1698	5.5	5 (≈ 2.36 µg/mL)	2.41	106 (≈ 226 µM)

Structure (SMILES)	IC50 [1] [µM]	Lipophilicity [2]	pXC50 [3]	MIC [4] [µM]	Lipophilicity [5]	solubility kinetic at 1 h [6] [µg/mL]
CC(C)c1noc(N2CCC([C@H](C)Oc3cnc(-c4ccc(S(C)(=O)=O)c(F)c4)cn3)CC2)n1	25	–	5.2	6 (≈ 2.94 µg/mL)	6.69	13 (≈ 26.6 µM)
CNc1snc(C)c1C(=O)NCCOc1ccc(OC)cc1	> 100	4.2469	5.7	2.5 (≈ 0.804 µg/mL)	4.24	121 (≈ 376 µM)
CC(C)N(C(=O)CNc1ccccc1Nc1ccccc1)c1ccccc1	50	8.1308	5.7	5.6 (≈ 2.01 µg/mL)	7.73	8 (≈ 22.3 µM)
NS(=O)(=O)c1ccc(Nc2cnc3ccccc3n2)cc1	> 100	2.5171	<4.3	2 (≈ 0.601 µg/mL)	1.07	112 (≈ 373 µM)
NC(=O)c1cc2ccc(CC(=O)c3cccs3)cc2s1	> 100	3.7247	6	3.8 (≈ 1.15 µg/mL)	3.62	8 (≈ 26.5 µM)
Cn1cc(CCNC(=O)Nc2ccc(N3CCCCC3)nc2)cn1	> 100	2.974	4.7	5 (≈ 1.64 µg/mL)	2.97	–
O=[N+]([O-])c1cnc(-c2nc3ccccc3[nH]2)s1	10	4.459	<4.3	4.4 (≈ 1.08 µg/mL)	3.17	16 (≈ 65 µM)
Cc1c(C(=O)NCCOc2ccccc2)[nH]c2c1C(=O)CCC2	100	3.8226	5	10 (≈ 3.12 µg/mL)	3.62	46 (≈ 147 µM)
CCOc1cc2ccccc2cc1C(=O)NC	> 100	4.6549	5.3	10 (≈ 2.29 µg/mL)	4.43	64 (≈ 279 µM)
CCCC/C=C/c1cc2ccncc2cc1OC1CCNCC1	16	7.3475	5.9	1.6 (≈ 0.497 µg/mL)	3.61	36 (≈ 116 µM)
Cc1ccc2oc(SCC(=O)Nc3nccs3)nc2n1	40	3.0066	<4.3	5.6 (≈ 1.72 µg/mL)	3.01	31 (≈ 101 µM)
O=C(Nc1nc2c(s1)CCCc1cccnc1-2)c1ccccc1C(F)(F)F	79	5.2587	6.2	3.7 (≈ 1.44 µg/mL)	5.26	9 (≈ 23.1 µM)
COC(=O)c1ccc(Oc2ccc(-c3csc(C)n3)cc2F)nn1	> 100	4.8996	<4.3	5.6 (≈ 1.93 µg/mL)	4.83	17 (≈ 49.2 µM)
Nc1ccc(S(=O)(=O)Nc2ccnn2-c2ccccc2)cc1 [SULFAPHENAZOLE]	> 100	2.8435	<4.3	10 (≈ 3.14 µg/mL)	1.08	≥ 167
CCOCn1ccc(NS(=O)(=O)c2ccc(N)cc2)nc1=O	> 100	0.7057	4.9	4.7 (≈ 1.52 µg/mL)	0.66	52 (≈ 160 µM)
O=C(NCc1ccco1)N1CCN(Cc2ccc3c(c2)CCO3)CC1	> 100	3.5941	5.8	2 (≈ 0.683 µg/mL)	3.47	88 (≈ 258 µM)
Fc1ccc(Cc2nnc(-c3ccnc(Nc4ccc(OCCN5CCOCC5)cc4)n3)[nH]2)cc1	40	3.8389	5.8	5.6 (≈ 2.66 µg/mL)	3.84	69 (≈ 145 µM)
CNc1nc(SC)nnc1-c1cccc(Cl)c1Cl	> 100	4.9976	6.1	2.5 (≈ 0.753 µg/mL)	4.94	≥ 85
COc1ccc(CN2CCN(C(=O)/C=C/c3csc(C)n3)CC2)cc1	80	4.1653	5.7	10 (≈ 3.57 µg/mL)	4.13	≥ 116
O=S(=O)(NCc1ccccc1)c1ccc(-c2cc3ccncc3cc2OC2CCNCC2)s1	10	4.4101	5.4	2.5 (≈ 1.2 µg/mL)	3.2	33 (≈ 68.8 µM)
Fc1cccc(Oc2cc(C3CCCNC3)nc(-c3ccncc3)n2)c1 (stereo not drawn)	50	5.1281	–	10 (≈ 3.5 µg/mL)	2.9	64 (≈ 183 µM)
